Source: patent US8354537B2, “R,R1-atracurium salts” (CHEMAGIS Ltd., priority 2007, dated 2013)

Test: Stability of the R,R′-atracurium salts in a closed vial at room temperature, monitored by HPLC
Format: physicochemical
Conditions: solid salt; for % content of the 1R-cis,1′R-cis isomer in the sample, After 19 days / % content of the 1R-cis,1′R-cis isomer in the sample, After 34 days / % content of the 1R-cis,1′R-cis isomer in the sample, After 47 days: HPLC; for % content of the 1R-cis,1′R-cis isomer in the sample, Reference sample (t0): t0, HPLC
From the text: 1 g of the R,R′-atracurium salt was placed in a closed vial, which was left aside at room temperature. From time to time the vial was opened and a sample was withdrawn and monitored by HPLC. The results are summarized in Table 3 and expressed as % content of the 1R-cis,1′R-cis isomer in the sample as function of the elapsed time, as measured by HPLC.

Row | Compound | % content of the 1R-cis,1′R-cis isomer in the sample, After 19 days [%] | % content of the 1R-cis,1′R-cis isomer in the sample, After 34 days [%] | % content of the 1R-cis,1′R-cis isomer in the sample, After 47 days [%] | % content of the 1R-cis,1′R-cis isomer in the sample, Reference sample (t0) [%]
1 | COc1ccc(C[C@@H]2c3cc(OC)c(OC)cc3CC[N+]2(C)CCC(=O)OCCCCCOC(=O)CC[N+]2(C)CCc3cc(OC)c(OC)cc3[C@H]2Cc2ccc(OC)c(OC)c2)cc1OC.O=S(=O)([O-])c1ccccc1.O=S(=O)([O-])c1ccccc1 (stereo partly drawn) [besylate, R,R′-atracurium besylate, reference compound] | 80.5 | 15.1 | 7.9 | 97.2
2 | R,R′-atracurium perchlorate | 92.1 | 92.7 | 92.3 | 98
3 | R,R′-atracurium tetrafluoroborate | 88.8 | 85.3 | 82.6 | 98.2
